Reference: article PMC3510435 (Febs Letters, 2012)

Legend:
[1] = target: T1, APH(3′)-IIIa (aminoglycoside phosphotransferase(3′)-IIIa) (Enterococcus faecalis, UniProt P0A3Y5); assay: rapid quench flow, total ADP by HPLC; format: biochemical; details: 20 μM ADP added together with 20 μM ATP, 5 μM enzyme, 100 μM KanA, 25 °C, pH 7.5; competes with ATP for E·KanA; also the reaction product
T1 construct: gene aphA; recombinant, N-terminal 6His-tag kept (pET15b), E. coli BL21(DE3)

[2] = target: T1, APH(3′)-IIIa (aminoglycoside phosphotransferase(3′)-IIIa); assay: quench flow and coupled-assay stopped flow, ADP production; format: biochemical; details: 100 μM KanA, 200 μM ATP, 0.2 μM enzyme, 25 °C, pH 7.5; KanA also binds the E·ADP complex (uncompetitive-type abortive complex)

T1 sequence (P0A3Y5 whole entry): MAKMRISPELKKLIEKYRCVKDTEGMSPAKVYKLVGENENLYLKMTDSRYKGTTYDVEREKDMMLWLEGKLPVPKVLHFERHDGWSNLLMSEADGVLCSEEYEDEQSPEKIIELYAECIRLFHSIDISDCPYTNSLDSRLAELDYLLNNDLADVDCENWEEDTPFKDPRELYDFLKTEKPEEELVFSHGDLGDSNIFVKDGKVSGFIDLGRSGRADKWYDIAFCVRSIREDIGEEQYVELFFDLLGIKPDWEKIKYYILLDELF

Nc1ncnc2c1ncn2[C@@H]1O[C@H](COP(=O)(O)OP(=O)(O)O)[C@@H](O)[C@H]1O [ADP]
% reduction of kss and Aburst [1]: ~ 50%

NC[C@H]1O[C@H](O[C@H]2[C@H](O)[C@@H](O[C@H]3O[C@H](CO)[C@@H](O)[C@H](N)[C@H]3O)[C@H](N)C[C@@H]2N)[C@H](O)[C@@H](O)[C@@H]1O [kanamycin A]
quench flow and coupled-assay stopped flow, ADP production [2]: The initial kss determined by the two methods were identical
